{"source": "paper PMC12007089", "about": "“Applying Isothermal Titration Calorimetry and Saturation Transfer Difference-NMR to Study the Mode of Interaction of Flavan-3-ols with α-Amylase to Understand Their Impact on Starch Hydrolysis” (Journal of Agricultural and Food Chemistry, 2025)", "origin": "cited, not measured here", "key": {"α-amylase [1]": {"system": "α-amylase", "parameters": "method as in PMID 21495725", "conditions": "cited from earlier work"}, "α-amylase [2]": {"system": "α-amylase", "parameters": "method as in PMID 28618113", "conditions": "α-amylase concentration of 20 μM in the sample cell; cited from earlier work"}}, "data": [{"smiles": "Oc1cc(O)c2c(c1)O[C@H](c1ccc(O)c(O)c1)[C@H](O)C2", "note": "[EC, (−)-Epicatechin]", "values": [{"measurement": "reduction / decrease in α-amylase activity", "setting": "α-amylase [1]", "result": 10, "unit": "%"}, {"measurement": "binding to α-amylase by ITC", "setting": "α-amylase [2]", "result": "weak binder"}]}]}
